Columns and labels:
[1] = Tested for its inhibitory activity against the enzyme chorismate mutase (CM) in Escherichia coli T-protein
[2] = Tested for its inhibitory activity against the enzyme prephenate dehydrogenase (PDH) in Escherichia coli T-protein
[3] = Tested for the inhibition against prephenate dehydrogenase; set-up: species or system Escherichia coli
[4] = Tested for its inhibitory activity against the enzyme chorismate mutase (CM) in Escherichia coli T-protein; no effect up to 1 mM

SMILES: O=C(O)[C@]12C[C@H]3C[C@H](C[C@H](C3)C1)C2
- Ki [1]: 430 µM
- Ki [2]: 310 µM

SMILES: O=P(O)(O)C12C[C@H]3C[C@@H](C1)C[C@@H](C2)C3
- Ki [1]: 200 µM
- Ki [2]: 140 µM

SMILES: C=C(O[C@@H]1C=C(C(=O)O)CCC1O)C(=O)O (stereo partly specified)
- Ki [1]: 430 µM
- Ki [2]: 590 µM

SMILES: C=C(O[C@@H]1C=C(C(=O)O)C(O)C(O)[C@H]1O)C(=O)O (stereo partly specified)
- Ki [1]: 410 µM
- Ki [2]: 110 µM

SMILES: O=C(O)[C@@H]1Cc2cccc3cccc(c23)C[C@H]1C(=O)O (racemic)
- IC50 [3]: 250 µM
- Ki [4]: no effect up to 1 mM
- Ki [2]: 212 µM

From ChEMBL document CHEMBL1135249, “Probing the overlap of chorismate mutase and prephenate dehydrogenase sites in the escherichia coli T-protein: a dehydrogenase-selective inhibitor” (Bioorg Med Chem Lett, 2002)
